Results as given in publication PMC5755735, “Discovery of indolylpiperazinylpyrimidines with dual-target profiles at adenosine A2A and dopamine D2 receptors for Parkinson's disease treatment” (PLoS ONE, 2018).
Where “and” joins values, the source holds several entries; their conditions need not be identical. Equal entries are not always repeated.

How the values were obtained:
[1] = target: human dopamine D2 receptor (Homo sapiens, UniProt P14416); experiment: D2R-proteopolymersomes-based fluorescence competition assay with BODIPY-NAPS; format: binding; parameters: made in house; host or cells: in vitro (cell-free) synthesis, inserted into polymersomes; conditions: + D2-ACM (D2R-proteopolymersomes); read-out: EC50 (D2 receptor, displacement of BODIPY-NAPS)
Chain of human dopamine D2 receptor (P14416 whole entry): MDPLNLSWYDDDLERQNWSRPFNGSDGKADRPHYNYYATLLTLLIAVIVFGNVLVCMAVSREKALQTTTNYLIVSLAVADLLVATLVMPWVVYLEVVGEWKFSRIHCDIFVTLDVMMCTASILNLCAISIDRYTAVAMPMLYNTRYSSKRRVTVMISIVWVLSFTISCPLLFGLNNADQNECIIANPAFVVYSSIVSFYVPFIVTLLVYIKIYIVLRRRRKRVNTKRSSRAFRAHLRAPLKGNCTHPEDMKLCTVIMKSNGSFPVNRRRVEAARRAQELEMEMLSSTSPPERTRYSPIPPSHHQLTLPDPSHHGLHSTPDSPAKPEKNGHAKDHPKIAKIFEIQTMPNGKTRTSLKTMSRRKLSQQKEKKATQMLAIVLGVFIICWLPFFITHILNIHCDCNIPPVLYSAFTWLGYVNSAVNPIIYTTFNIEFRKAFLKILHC
Protocol: For the replacement assay, ABA-polymersomes were covalently attached to an amino-functionalized glass slide, which was then treated with isopropanol, ultrapure water and a N2-stream. […] Program ImageJ was used for determination of fluorescence intensities.

HL-1 cardiomyocyte = experiment: cell viability assay in HL-1 cardiomyocytes (Cell-Titer-Glo); format: cell-based; conditions: concentrations less than 30 μM, 24 h
Protocol: Besides the mutagenicity study, compounds 5 and 6 were also subjected to cell viability assays using transforming growth factor-alpha mouse hepatocyte (TAMH) and HL-1 cardiomyocyte to assess the cytotoxic potential. TAMH lines were treated with compounds 5 and 6 in eight different concentrations (100 μM, 33.3 μM, 11.1 μM, 3.7 μM, 1.23 μM, 0.41 μM, 0.13 μM, 0.045 μM), and the percentage of viable cells was plotted against the logarithm of ligand concentration (S10B and S10C Fig). […] Acetaminophen, a drug with direct hepatotoxic potential, was used as the positive control in this assay (S10A Fig). […] Doxorubicin, a chemotherapeutic agent known to cause dose-dependent cardiotoxicity, was used as the positive control in this assay (S10D Fig).
Immortalised hepatocyte and cardiomyocyte cell lines, TAMH (TGF-α overexpressing mouse hepatocytes) and HL-1 were used respectively as models for in vitro toxicity studies. Both cell lines were cultured in accordance with previously described methods. […] The cell-reagent mixture was transferred to a solid white flat-bottom 96-well plate (Greiner 655207) for luminescence reading. Luminescence was recorded with an integration time of 0.25 second with a Tecam Infinite® M200 Microplate reader. Data are expressed as percentage of viable cells compared to DMSO-treated controls. […]

[2] = target: T1, human A1 receptors expressed in CHO cells (Homo sapiens, UniProt P30542); experiment: competition binding at human A1 adenosine receptors ([3H]CCPA displacement); conditions: displacement of [3H]CCPA, 95% confidence limits, n = 3–6, read-out: Ki hA1
T1 sequence (P30542 1-326): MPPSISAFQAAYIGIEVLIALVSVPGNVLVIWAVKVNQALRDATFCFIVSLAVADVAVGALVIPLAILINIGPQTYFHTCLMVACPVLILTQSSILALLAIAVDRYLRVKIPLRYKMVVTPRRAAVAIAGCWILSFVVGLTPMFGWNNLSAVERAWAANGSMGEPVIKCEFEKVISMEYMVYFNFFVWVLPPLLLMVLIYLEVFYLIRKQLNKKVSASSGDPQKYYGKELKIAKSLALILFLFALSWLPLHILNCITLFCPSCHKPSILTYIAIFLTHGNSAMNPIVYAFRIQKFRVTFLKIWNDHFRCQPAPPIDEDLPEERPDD
Protocol: A two-step procedure was adopted to prepare membrane for radioligand binding from cells stably transfected with human adenosine receptor subtypes (hA1, hA2A and hA3 expressed on CHO cells). Firstly, cell fragments and nuclei were removed by using low-speed centrifugation (1,000 g for 10 min). After that, crude membrane fraction from supernatant was then sedimented at 100,000 g for 30 min. The membrane pellet was subsequently re-suspended in the specific binding buffer, frozen in liquid nitrogen and stored at -80°C. For measurement of adenylyl cyclase activity in the hA2B receptors, one-step centrifugation procedure was used; the homogenate was sedimented for 30 min at 54,000 g. The so-obtained crude membrane pellet was re-suspended in 50 mM Tris/HCl, pH 7.4 and used for the adenylyl cyclase assay immediately.
Non-specific binding was determined using theophylline 1 mM. […] Non-specific binding was determined using N^6-R-phenylisopropyl adenosine (R-PIA) 100 μM. ^41 The binding of [^3H]HEMADO to CHO cells transfected with hA3 adenosine receptors was carried out as described earlier. […] Non-specific binding was determined using R-PIA 100 μM.
The assay mixture was then filtered through the built-in filter at the bottom of the 96-well microplate filtration system (Millipore Multiscreen MAFC) and washed three times with 200 μL of cold buffer. After addition of 20 μL of scintillator to the dried filter plates, the filter bound radioactivity was counted on a Wallac Micro-Beta counter. All Ki values were calculated by non-linear curve fitting with the program SCTFIT [45].

Row | Compound | EC50 [1] | cytotoxicity (cell viability) (HL-1 cardiomyocyte) | Ki [2] [µM]
1 | Cc1cc(C)nc(N2CCN(C(=O)c3c[nH]c4ccccc34)CC2)n1 [Compound 5, 3‐[4‐(4,6‐Dimethylpyrimidin‐2‐yl)piperazine‐1‐carbonyl]‐1H‐indole] | 22.5 to 40.2 µM and 22.5 µM | no toxicity observed | > 100
2 | Cc1cc(C)nc(N2CCN(C(=O)Cc3c(C)[nH]c4ccccc34)CC2)n1 [Compound 6, 1‐[4‐(4,6‐Dimethylpyrimidin‐2‐yl)piperazin‐1‐yl]‐2‐(2‐methyl‐1H‐indol‐3‐yl)ethan‐1‐one] | 22.5 to 40.2 µM and 40.2 µM | no toxicity observed | > 100
